# Assay results published in patent US10202361B2, “Pyridazinones as herbicides” (E I DU PONT DE NEMOURS AND COMPANY, priority 2014, dated 2019).
# Columns and labels:
# Assay type in all cases: in vivo
# [1] = system: morningglory (Ipomoea spp.); assay: Test A pre-/postemergence greenhouse herbicide test; details: 0 to 100 scale (0 no effect, 100 complete control), approx. 10 d
# Excerpt: (§1) Seeds of plant species selected from barnyardgrass (Echinochloa crus-galli), crabgrass, Large (large crabgrass, Digitaria sanguinalis), foxtail, giant (giant foxtail, Setaria faberii), morningglory (Ipomoea spp.), pigweed (Amaranthus retroflexus), velvetleaf (Abutilon theophrasti), wheat (Triticum aestivum), and corn (Zea mays) were planted into a blend of loam soil and sand and treated preemergence with a directed soil spray using test chemicals formulated in a non-phytotoxic solvent mixture which included a surfactant. At the same time these species were also treated with postemergence applications of test chemicals formulated in the same manner.
# (§2) Plants ranged in height from 2 to 10 cm and were in the one- to two-leaf stage for the postemergence treatment. Treated plants and untreated controls were maintained in a greenhouse for approximately 10 d, after which time all treated plants were compared to untreated controls and visually evaluated for injury. Plant response ratings, summarized in Table A, are based on a 0 to 100 scale where 0 is no effect and 100 is complete control. A dash (-) response means no test result.
# [2] = system: velvetleaf (Abutilon theophrasti); assay: as above; details: 0 to 100 scale (0 no effect, 100 complete control), approx. 10 d
# Excerpt: as §1, §2
# [3] = system: crabgrass, Large (large crabgrass, Digitaria sanguinalis); assay: as above; details: 0 to 100 scale (0 no effect, 100 complete control), approx. 10 d
# Excerpt: as §1, §2
# [4] = system: foxtail, giant (giant foxtail, Setaria faberii); assay: as above; details: 0 to 100 scale (0 no effect, 100 complete control), approx. 10 d
# Excerpt: as §1, §2
# [5] = system: wheat (Triticum aestivum); assay: as above; details: 0 to 100 scale (0 no effect, 100 complete control), approx. 10 d
# Excerpt: as §1, §2
# corn (Zea mays) = assay: as above; details: 0 to 100 scale (0 no effect, 100 complete control), approx. 10 d
# Excerpt: as §1, §2
# [6] = system: barnyardgrass (Echinochloa crus-galli); assay: as above; details: Postemergence, 0 to 100 scale (0 no effect, 100 complete control), approx. 10 d
# Excerpt: as §1, §2
# [7] = system: pigweed (Amaranthus retroflexus); assay: as above; details: 0 to 100 scale (0 no effect, 100 complete control), approx. 10 d
# Excerpt: as §1, §2
# [8] = system: ducksalad (Heteranthera limosa); assay: Test B flooded paddy test; details: Flood, 250 g ai/ha; scale of 0 to 100, 0 is no effect, 100 is complete control; 13 to 15 d
# Protocol: (§3) Plant species in the flooded paddy test selected from rice (Oryza sativa), small-flower sedge, umbrella (small-flower umbrella sedge, Cyperus difformis), ducksalad (Heteranthera limosa), and barnyardgrass (Echinochloa crus-galli) were grown to the 2-leaf stage for testing. At time of treatment, test pots were flooded to 3 cm above the soil surface, treated by application of test compounds directly to the paddy water, and then maintained at that water depth for the duration of the test. Treated plants and controls were maintained in a greenhouse for 13 to 15 d, after which time all species were compared to controls and visually evaluated. Plant response ratings, summarized in Table B, are based on a scale of 0 to 100 where 0 is no effect and 100 is complete control. A dash (-) response means no test result.
# rice (Oryza sativa) = assay: Test B flooded paddy test; details: Flood, 250 g ai/ha; scale of 0 to 100, 0 is no effect, 100 is complete control; 13 to 15 d
# Protocol: as §3
# [9] = system: barnyardgrass (Echinochloa crus-galli); assay: Test B flooded paddy test; details: Flood, 250 g ai/ha; scale of 0 to 100, 0 is no effect, 100 is complete control; 13 to 15 d
# Protocol: as §3
# [10] = system: sedge, umbrella (small-flower umbrella sedge, Cyperus difformis); assay: Test B flooded paddy test; details: Flood, 250 g ai/ha; scale of 0 to 100, 0 is no effect, 100 is complete control; 13 to 15 d
# Protocol: as §3
Compound,"Plant response rating, Morningglory ([1]; Postemergence, 125 g ai/ha)","Plant response rating, Morningglory ([1]; Postemergence, 500 g ai/ha)","Plant response rating, Morningglory ([1]; Preemergence, 125 g ai/ha)","Plant response rating, Morningglory ([1]; Preemergence, 500 g ai/ha)","Plant response rating, Velvetleaf ([2]; Postemergence, 125 g ai/ha)","Plant response rating, Velvetleaf ([2]; Postemergence, 500 g ai/ha)","Plant response rating, Velvetleaf ([2]; Preemergence, 125 g ai/ha)","Plant response rating, Velvetleaf ([2]; Preemergence, 500 g ai/ha)","Plant response rating, Crabgrass, Large ([3]; Postemergence, 125 g ai/ha)","Plant response rating, Crabgrass, Large ([3]; Postemergence, 500 g ai/ha)","Plant response rating, Crabgrass, Large ([3]; Preemergence, 125 g ai/ha)","Plant response rating, Crabgrass, Large ([3]; Preemergence, 500 g ai/ha)","Plant response rating, Foxtail, Giant ([4]; Postemergence, 125 g ai/ha)","Plant response rating, Foxtail, Giant ([4]; Postemergence, 500 g ai/ha)","Plant response rating, Foxtail, Giant ([4]; Preemergence, 125 g ai/ha)","Plant response rating, Foxtail, Giant ([4]; Preemergence, 500 g ai/ha)","Plant response rating, Wheat ([5]; Postemergence, 125 g ai/ha)","Plant response rating, Wheat ([5]; Postemergence, 500 g ai/ha)","Plant response rating, Wheat ([5]; Preemergence, 125 g ai/ha)","Plant response rating, Wheat ([5]; Preemergence, 500 g ai/ha)",further results
Cc1cc(Oc2cccc(C(F)(F)F)n2)nn(-c2ccc(F)cc2)c1=O [Compound 11],20,30,0,0,0,0,0,0,10,20,0,10,10,20,0,0,0,0,0,0,"Plant response rating, Corn (corn (Zea mays); Postemergence, 125 g ai/ha): 0; Plant response rating, Corn (corn (Zea mays); Postemergence, 500 g ai/ha): 0; Plant response rating, Corn (corn (Zea mays); Preemergence, 125 g ai/ha): 0; Plant response rating, Corn (corn (Zea mays); Preemergence, 500 g ai/ha): 0; Plant response rating, Barnyardgrass ([6]; 125 g ai/ha): 0; Plant response rating, Barnyardgrass ([6]; 500 g ai/ha): 0; Plant response rating, Pigweed ([7]; Postemergence, 125 g ai/ha): 60; Plant response rating, Pigweed ([7]; Postemergence, 500 g ai/ha): 70; Plant response rating, Pigweed ([7]; Preemergence, 125 g ai/ha): 0; Plant response rating, Pigweed ([7]; Preemergence, 500 g ai/ha): 0; Plant response rating, Ducksalad [8]: 0; Plant response rating, Rice (rice (Oryza sativa)): 0; Plant response rating, Barnyardgrass [9]: 0; Plant response rating, Sedge, Umbrella [10]: 0"
Cc1cc(=O)n(-c2ccc(F)cc2)nc1Oc1cccc(C(F)(F)F)n1 [Compound 12],50,90,0,50,40,60,30,70,20,70,100,100,20,80,80,100,0,20,0,0,"Plant response rating, Corn (corn (Zea mays); Postemergence, 125 g ai/ha): 10; Plant response rating, Corn (corn (Zea mays); Postemergence, 500 g ai/ha): 50; Plant response rating, Corn (corn (Zea mays); Preemergence, 125 g ai/ha): 0; Plant response rating, Corn (corn (Zea mays); Preemergence, 500 g ai/ha): 30; Plant response rating, Barnyardgrass ([6]; 125 g ai/ha): 40; Plant response rating, Barnyardgrass ([6]; 500 g ai/ha): 70; Plant response rating, Pigweed ([7]; Postemergence, 125 g ai/ha): 60; Plant response rating, Pigweed ([7]; Postemergence, 500 g ai/ha): 90; Plant response rating, Pigweed ([7]; Preemergence, 125 g ai/ha): 90; Plant response rating, Pigweed ([7]; Preemergence, 500 g ai/ha): 100; Plant response rating, Ducksalad [8]: 0; Plant response rating, Rice (rice (Oryza sativa)): 20; Plant response rating, Barnyardgrass [9]: 20; Plant response rating, Sedge, Umbrella [10]: 0"
